In PubChem BioAssay AID743425 (Vanderbilt Specialized Chemistry Center, 2014):
Calls of active or inactive are those of the source. How the calls were made is not given here.

molecular target: Metabotropic glutamate receptor 8 (Rattus norvegicus) (UniProt P70579); assay: mGlu8 positive allosteric modulator potency, dose response, rat receptor, calcium (AID 743425); settings: rat mGlu8, Fluo-4 calcium, glutamate EC20 potentiation; stronger effect = higher value
Sequence (P70579 whole entry, looked up): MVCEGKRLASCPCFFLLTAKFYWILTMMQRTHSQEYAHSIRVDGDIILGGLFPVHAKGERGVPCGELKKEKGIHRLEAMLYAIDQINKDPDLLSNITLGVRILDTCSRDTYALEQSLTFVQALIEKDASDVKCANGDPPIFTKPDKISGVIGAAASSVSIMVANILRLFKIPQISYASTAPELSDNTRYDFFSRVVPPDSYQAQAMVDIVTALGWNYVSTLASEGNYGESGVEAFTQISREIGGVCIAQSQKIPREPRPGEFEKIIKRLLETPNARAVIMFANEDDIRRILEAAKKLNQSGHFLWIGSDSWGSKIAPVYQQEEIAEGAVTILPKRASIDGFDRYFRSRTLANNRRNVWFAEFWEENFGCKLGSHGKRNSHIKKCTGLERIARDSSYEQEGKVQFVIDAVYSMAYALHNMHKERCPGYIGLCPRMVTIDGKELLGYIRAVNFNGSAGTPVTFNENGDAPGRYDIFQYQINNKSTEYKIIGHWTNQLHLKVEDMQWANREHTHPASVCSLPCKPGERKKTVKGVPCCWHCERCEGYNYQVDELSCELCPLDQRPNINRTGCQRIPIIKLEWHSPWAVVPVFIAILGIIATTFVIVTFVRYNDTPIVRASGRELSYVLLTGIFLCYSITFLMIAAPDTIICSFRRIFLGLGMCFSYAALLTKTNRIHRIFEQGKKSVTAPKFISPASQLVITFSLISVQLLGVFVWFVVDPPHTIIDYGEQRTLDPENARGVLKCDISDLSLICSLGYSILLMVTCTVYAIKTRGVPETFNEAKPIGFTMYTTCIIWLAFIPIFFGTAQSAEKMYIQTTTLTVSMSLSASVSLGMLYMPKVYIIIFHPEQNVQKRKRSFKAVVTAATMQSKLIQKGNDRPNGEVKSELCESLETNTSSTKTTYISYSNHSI

Structure (SMILES)	% glutamate max
COC(=O)c1ccc(-n2c(C)cc(C(=O)CNc3ccc(C(=O)O)cc3)c2C)cc1	inactive
COC(=O)c1ccc(-n2c(C)cc(C(=O)COc3cccc(N(C)C)c3)c2C)cc1	inactive

molecular target: Metabotropic glutamate receptor 8 (Homo sapiens) (UniProt O00222); assay: as above; settings: rat mGlu8, Fluo-4 calcium, glutamate EC20 potentiation
Sequence (O00222 whole entry, looked up): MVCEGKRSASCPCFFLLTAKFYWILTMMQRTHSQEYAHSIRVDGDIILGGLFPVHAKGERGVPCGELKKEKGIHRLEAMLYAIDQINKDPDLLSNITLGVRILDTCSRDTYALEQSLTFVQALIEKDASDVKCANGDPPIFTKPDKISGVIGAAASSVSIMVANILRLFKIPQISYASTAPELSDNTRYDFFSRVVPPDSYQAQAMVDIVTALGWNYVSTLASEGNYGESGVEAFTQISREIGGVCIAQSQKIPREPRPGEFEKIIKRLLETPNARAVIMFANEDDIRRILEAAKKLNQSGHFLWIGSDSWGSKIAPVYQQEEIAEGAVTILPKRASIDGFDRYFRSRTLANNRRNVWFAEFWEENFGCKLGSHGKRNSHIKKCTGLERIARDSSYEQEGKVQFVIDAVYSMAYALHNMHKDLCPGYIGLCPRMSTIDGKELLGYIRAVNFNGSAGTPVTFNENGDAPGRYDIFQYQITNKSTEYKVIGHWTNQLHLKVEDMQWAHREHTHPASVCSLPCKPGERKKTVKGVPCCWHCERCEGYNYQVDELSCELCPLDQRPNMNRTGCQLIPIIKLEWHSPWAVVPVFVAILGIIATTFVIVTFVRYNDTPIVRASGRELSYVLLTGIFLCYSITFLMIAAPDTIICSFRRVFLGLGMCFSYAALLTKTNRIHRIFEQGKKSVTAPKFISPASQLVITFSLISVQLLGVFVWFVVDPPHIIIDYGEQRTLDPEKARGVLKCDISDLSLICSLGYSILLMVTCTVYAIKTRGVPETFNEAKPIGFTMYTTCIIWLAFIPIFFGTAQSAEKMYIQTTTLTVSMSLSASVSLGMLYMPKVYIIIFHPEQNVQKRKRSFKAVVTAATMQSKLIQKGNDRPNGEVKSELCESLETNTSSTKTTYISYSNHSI

Structure (SMILES)	EC50 [µM]
CC(=O)Nc1ccc(SCC(=O)c2cc(C)n(CC3CCCO3)c2C)cc1 (stereo not drawn)	3.44
COC(=O)c1ccc(-n2c(C)cc(C(=O)COc3ccc(OC(C)=O)cc3)c2C)cc1	10
CCOc1ccc(-n2c(C)cc(C(=O)CSCc3cccc(C)c3)c2C)cc1	3.16
COC(=O)c1ccc(-n2c(C)cc(C(=O)CSCc3ccc(OC)cc3)c2C)cc1	1.6
CC(=O)Nc1ccc(SCC(=O)c2cc(C)n(CCc3cccs3)c2C)cc1	1.6
CC(=O)Nc1ccc(SCC(=O)c2cc(C)n(-c3nc(C)cs3)c2C)cc1	10
COC(=O)c1ccc(-n2c(C)cc(C(=O)CSCc3cccc(C)c3)c2C)cc1	3.16
CC(=O)Nc1ccc(SCC(=O)c2cc(C)n(-c3ccc(S(N)(=O)=O)cc3)c2C)cc1	3.16
CC(=O)Nc1ccc(SCC(=O)c2cc(C)n(-c3ccccc3F)c2C)cc1	3.16
CCn1c(C)cc(C(=O)CSc2ccc(NC(C)=O)cc2)c1C	10
CCOc1ccc(-n2c(C)cc(C(=O)CSCc3ccc(OC)cc3)c2C)cc1	3.16
COc1ccc(CSCC(=O)c2cc(C)n(-c3ccc(OC(F)F)cc3)c2C)cc1	0.23
CC(=O)Nc1ccc(SCC(=O)c2cc(C)n(-c3cccc(F)c3)c2C)cc1	1.5
COC(=O)c1ccc(-n2c(C)cc(C(=O)COc3ccc(NC(C)=O)cc3)c2C)cc1	3.4
COc1ccc(SCC(=O)c2cc(C)n(-c3ccc(OC(F)F)cc3)c2C)cc1	3.16
Cc1ccc(CSCC(=O)c2cc(C)n(-c3ccc(OC(F)F)cc3)c2C)cc1	3.16
CC(=O)Nc1ccc(SCC(=O)c2cc(C)n(CC3COc4ccccc4O3)c2C)cc1 (stereo not drawn)	1.14
COC(=O)c1ccc(-n2c(C)cc(C(=O)CSc3ccc(N(C)C(C)=O)cc3)c2C)cc1	3.3
CC(=O)Nc1ccc(OCC(=O)c2cc(C)n(-c3ccc(OC(F)F)cc3)c2C)cc1	3.5
COC(=O)c1ccc(-n2c(C)cc(C(=O)CSc3ccc(NC(C)=O)cc3)c2C)cc1	0.93
CCOc1ccc(-n2c(C)cc(C(=O)CSc3ccc(OC)cc3)c2C)cc1	3.16
